Values quoted from earlier work, collected in patent US20160120797A1, “ANTI-ACNE COMPOSITION AND METHODS OF USE THEREOF” (priority 2014, published 2016).

O=C(O)Cc1ccccc1Nc1c(Cl)cccc1Cl [Diclofenac sodium, 2-(2-(2,6-dichlorophenylamino)phenyl)acetic acid]
anti-bacterial activity (L. monocytogenes): anti-bacterial activity
anti-bacterial activity (E. Coli): anti-bacterial activity
